# Earlier results as cited in patent publication US11491138B2, “Injectable psychoactive alkaloid composition and preparation thereof” (PSILO SCIENTIFIC LTD, priority 2020, dated 2022).
# How the values were obtained:
# [1] = stated as known property
# [2] = reason for composition pH of 4.5-5.5
smiles,measurement,setting,value
CN(C)CCc1c[nH]c2cccc(O)c12 [psilocin],isoelectric point,[1],8.47±0.25 pH
same,pH at which instability occurs,[2],over 5.5 pH
